Measurements taken from ChEMBL document CHEMBL3885881, “DrugMatrix”.

Species on record: Rattus norvegicus
Experiment: DrugMatrix - Regimen: Daily Repeat
Format: toxicity, organism-based, Sprague-Dawley
Design: regimen Daily Repeat, gender Male, age 6-8 weeks
Conditions: in vivo, po, 1200 mg/kg, route oral GAVAGE, dose level High, vehicle .5 % CMC; for ABSOLUTE BASOPHIL / ABSOLUTE EOSINOPHIL / ABSOLUTE LYMPHOCYTE / ABSOLUTE MONOCYTE / ABSOLUTE SEGMENTED NEUTROPHIL / BASOPHIL / EOSINOPHIL / ERYTHROCYTE COUNT / HEMATOCRIT / HEMOGLOBIN / LEUKOCYTE COUNT / LYMPHOCYTE / MEAN CORPUSCULAR HEMOGLOBIN / MEAN CORPUSCULAR HEMOGLOBIN CONCENTRATION / MEAN CORPUSCULAR VOLUME / MONOCYTE / NEUTROPHIL / NUCLEATED RED BLOOD CELLS / PLATELET COUNT: tissue Blood; for ALANINE AMINOTRANSFERASE / ALBUMIN / ALKALINE PHOSPHATASE / ASPARTATE AMINOTRANSFERASE / BLOOD UREA NITROGEN / CARBON DIOXIDE / CHLORIDE / CHOLESTEROL / CREATINE PHOSPHOKINASE / CREATININE / GLUCOSE / LACTATE DEHYDROGENASE / LIPASE / PHOSPHORUS / POTASSIUM / SODIUM / TOTAL BILIRUBIN / TOTAL PROTEIN / URIC ACID: tissue Plasma

SMILES: O=C(C1CCCCC1)N1CC(=O)N2CCc3ccccc3C2C1 (stereo unspecified) [PRAZIQUANTEL]
- ABSOLUTE BASOPHIL (72 h, time 3 day): 0 CELLS/uL
- ABSOLUTE EOSINOPHIL (72 h, time 3 day): 48 CELLS/uL
- ABSOLUTE LYMPHOCYTE (72 h, time 3 day): 14636 CELLS/uL
- ABSOLUTE MONOCYTE (72 h, time 3 day): 440 CELLS/uL
- ABSOLUTE SEGMENTED NEUTROPHIL (72 h, time 3 day): 1476 CELLS/uL
- BASOPHIL (72 h, time 3 day): 0%
- EOSINOPHIL (72 h, time 3 day): 0.33%
- ERYTHROCYTE COUNT (72 h, time 3 day): 6.1 x10E6/uL
- HEMATOCRIT (72 h, time 3 day): 37.8%
- HEMOGLOBIN (72 h, time 3 day): 14.07 G/DL
- LEUKOCYTE COUNT (72 h, time 3 day): 16.6 x10E3/uL
- LYMPHOCYTE (72 h, time 3 day): 88%
- MEAN CORPUSCULAR HEMOGLOBIN (72 h, time 3 day): 23.1 pg
- MEAN CORPUSCULAR HEMOGLOBIN CONCENTRATION (72 h, time 3 day): 37.23 G/DL
- MEAN CORPUSCULAR VOLUME (72 h, time 3 day): 62.03 fL
- MONOCYTE (72 h, time 3 day): 2.67%
- NEUTROPHIL (72 h, time 3 day): 9%
- NUCLEATED RED BLOOD CELLS (72 h, time 3 day): 0 /100WBC
- PLATELET COUNT (72 h, time 3 day): 1207 x10E3/uL
- ALANINE AMINOTRANSFERASE (72 h, time 3 day): 78.33 u/L
- ALBUMIN (72 h, time 3 day): 4.17 G/DL
- ALKALINE PHOSPHATASE (72 h, time 3 day): 420.67 u/L
- ASPARTATE AMINOTRANSFERASE (72 h, time 3 day): 106 u/L
- BLOOD UREA NITROGEN (72 h, time 3 day): 16.67 mg/dL
- CARBON DIOXIDE (72 h, time 3 day): 21.67 mmol/L
- CHLORIDE (72 h, time 3 day): 106 MEQ/L
- CHOLESTEROL (72 h, time 3 day): 113 mg/dL
- CREATINE PHOSPHOKINASE (72 h, time 3 day): 468 u/L
- CREATININE (72 h, time 3 day): 0.27 mg/dL
- GLUCOSE (72 h, time 3 day): 155.33 mg/dL
- LACTATE DEHYDROGENASE (72 h, time 3 day): 155.67 u/L
- LIPASE (72 h, time 3 day): 12.33 u/L
- PHOSPHORUS (72 h, time 3 day): 12.53 mg/dL
- POTASSIUM (72 h, time 3 day): 6.11 MEQ/L
- SODIUM (72 h, time 3 day): 146.03 MEQ/L
- TOTAL BILIRUBIN (72 h, time 3 day): 0.17 mg/dL
- TOTAL PROTEIN (72 h, time 3 day): 5.9 G/DL
- URIC ACID (72 h, time 3 day): 1.8 mg/dL
- ABSOLUTE BASOPHIL (120 h, time 5 day): 0 CELLS/uL
- ABSOLUTE EOSINOPHIL (120 h, time 5 day): 0 CELLS/uL
- ABSOLUTE LYMPHOCYTE (120 h, time 5 day): 15049.33 CELLS/uL
- ABSOLUTE MONOCYTE (120 h, time 5 day): 624 CELLS/uL
- ABSOLUTE SEGMENTED NEUTROPHIL (120 h, time 5 day): 1126.67 CELLS/uL
- BASOPHIL (120 h, time 5 day): 0%
- EOSINOPHIL (120 h, time 5 day): 0%
- ERYTHROCYTE COUNT (120 h, time 5 day): 6.07 x10E6/uL
- HEMATOCRIT (120 h, time 5 day): 37.33%
- HEMOGLOBIN (120 h, time 5 day): 14 G/DL
- LEUKOCYTE COUNT (120 h, time 5 day): 16.8 x10E3/uL
- LYMPHOCYTE (120 h, time 5 day): 89.67%
- MEAN CORPUSCULAR HEMOGLOBIN (120 h, time 5 day): 23.07 pg
- MEAN CORPUSCULAR HEMOGLOBIN CONCENTRATION (120 h, time 5 day): 37.53 G/DL
- MEAN CORPUSCULAR VOLUME (120 h, time 5 day): 61.5 fL
- MONOCYTE (120 h, time 5 day): 3.67%
- NEUTROPHIL (120 h, time 5 day): 6.67%
- NUCLEATED RED BLOOD CELLS (120 h, time 5 day): 0 /100WBC
- PLATELET COUNT (120 h, time 5 day): 1413.33 x10E3/uL
- ALANINE AMINOTRANSFERASE (120 h, time 5 day): 57.67 u/L
- ALBUMIN (120 h, time 5 day): 4.2 G/DL
- ALKALINE PHOSPHATASE (120 h, time 5 day): 351.33 u/L
- ASPARTATE AMINOTRANSFERASE (120 h, time 5 day): 77 u/L
- BLOOD UREA NITROGEN (120 h, time 5 day): 17.67 mg/dL
- CARBON DIOXIDE (120 h, time 5 day): 27.33 mmol/L
- CHLORIDE (120 h, time 5 day): 103.67 MEQ/L
- CHOLESTEROL (120 h, time 5 day): 102.33 mg/dL
- CREATINE PHOSPHOKINASE (120 h, time 5 day): 250.67 u/L
- CREATININE (120 h, time 5 day): 0.22 mg/dL
- GLUCOSE (120 h, time 5 day): 153 mg/dL
- LACTATE DEHYDROGENASE (120 h, time 5 day): 208.67 u/L
- LIPASE (120 h, time 5 day): 12.33 u/L
- PHOSPHORUS (120 h, time 5 day): 13.13 mg/dL
- POTASSIUM (120 h, time 5 day): 7.47 MEQ/L
- SODIUM (120 h, time 5 day): 145.47 MEQ/L
- TOTAL BILIRUBIN (120 h, time 5 day): 0.17 mg/dL
- TOTAL PROTEIN (120 h, time 5 day): 6.33 G/DL
- URIC ACID (120 h, time 5 day): 2.3 mg/dL
